Measured values reported in patent US20250270165A1, “COMPOSITIONS FOR AND METHODS OF MODULATING RNA STABILITY” (Duke University, priority 2022, published 2025).
Where “and” joins values, the source holds several entries; their conditions need not be identical. Equal entries are not always repeated. Entries after “also recorded” stand apart in the source; their conditions may differ. Where two headings read alike, the source gives them in different places. One block for each compound: values may come before it.

What was measured:
[1] = test system: LNCaP cells; experiment: MTT assay in LNCaP cells; type: cell-based, human; details: for IC50: Homo sapiens
Description: The MTT reagent (3-(4,5-dimethylthiazol-2-yl)-2,5-diphenyl-2H-tetrazolium bromide) is a mono-tetrazolium salt that consists of a positively charged quaternary tetrazole ring core containing four nitrogen atoms surrounded by three aromatic rings including two phenyl moieties and one thiazolyl ring. Reduction of MTT results in disruption of the core tetrazole ring and the formation of a violet-blue water-insoluble molecule called formazan. The MTT reagent can pass through the cell membrane as well as the mitochondrial inner membrane of viable cells presumably due to its positive charge as well as its lipophilic structure and is reduced to formazan by metabolically active cells. The chromogenic nature of this redox chemical reaction provides a colorimetric-based measurement of intracellular formazan production based on which the MTT assay was developed. Consequently, the assay has extensive utility as a cell metabolic activity assay.
In the first set of […] experiments, four (4) members of the small molecule library were examined in a MTT assay. […] The IC50 values and trends were similar to the apparent small molecule affinities for MALAT-1, supporting a MALAT-1 related mechanism for the toxicity. […] Ongoing cytotoxicity studies using other DMZ small molecule analogs (as well as DMZ-5, DMZ-P13, and DMZ-P17) continue to illuminate mechanism of action regarding toxicity to cancer cells.

[2] = test system: MALAT1 triple helix; experiment: RNase A enzymatic degradation assay; type: biochemical, human; details: for stabilizing or destabilizing compound as listed in the description: listing in an aspect, degradation in an enzymatic assay versus control
Method: RNase A Enzymatic Degradation Assay.
The procedure was adapted from a published protocol for exonucleolytic enzymatic degradation assay. (Donlic A, et al. (2020) Nucleic Acids Res. 48(14):7653-7664). The MALAT1 destabilizing small molecules published by Le Grice (Abulwerdi F A, et al. (2019) ACS Chem Biol. 14(2):223-235) and co-workers SM5 and SM16 were purchased from ChemBridge. For a typical 70 μL reaction, […] of MALAT1 triple helix RNA was annealed in the same buffer used for IDA and DSF experiments (20 mM HEPES-KOH, 52 mM KCl, 0.1 mM MgCl2, pH=7.4) by heating at 95° C. for 3 minutes, snap-cooling on ice for 10 minutes, and leaving the solution at room temperature for 1 hr.
RNase A enzyme (ThermoFisher) was diluted to 1.46 nM and incubated with 1 M NaCl for 30-35 minutes to achieve ssRNA selectivity as reported. (Struhl K, et al. (1989) Current Protocols in Molecular Biology. 8(1):3.13.1-3.13.3). Next, the RNA was mixed with […] of a CC-rich DNA duplex, 0.2 mM of small molecule/DMSO and incubated at room temperature for 20 minutes. Following the incubation, […] of RNase A was added, and the reaction was incubated at 37° C. for 1 hour in a thermal cycler with a heated lid (Eppendorf). 4 μL timepoint aliquots were taken at 0, 5, 10, 30, and 60 minutes, 4 μL of 2×RNA loading dye was added to each aliquot (ThermoFischer Scientific), and samples were stored at −80° C. prior to gel analysis. Reactions were analyzed on pre-cast 15% PAGE-Urea gels (Invitrogen) in 1×TBE buffer. Aliquots were thawed from −80° C. storage and heated to 95° C. for 15 minutes prior to gel loading and […] were loaded in each well. Gels were run for 45 minutes at 180 V, stained with Diamond™ Nucleic Acid dye (Promega), and visualized on an iBright 500 (ThermoFisher). DMSO controls were ran with every set of 4 small molecules to ensure consistency of enzyme activity and RNA integrity. Gel band intensity of the MALAT1 triple helix and DNA loading control were quantified using ImageJ software. (Rueden C T, et al. (2017) BMC Bioinformatics. 18(1):529).
To quantify time-dependent endonucleolytic degradation for each sample, the intensity was normalized using Equation (3), and fold-difference was calculated as listed in Equation (4) as previously reported. (Donlic A, et al. (2020) Nucleic Acids Res. 48(14):7653-7664).
where y is fold-difference of the exonucleolytic degradation for the specific sample, with normalized areas for its specific time point x and time point 0 calculated as described in Equation (3). Percent RNA degraded was calculated for every time point using Equation (5).
% RNA degraded=(Normalized area (t0)−Normalized area (tx))*100 (Equation 5)
Experimental results shown in FIG. 6C are plotted as three independent replicates and standard deviation between replicates as error bars. Relative fold change between treated condition and DMSO was calculated from Equation (6).

[3] = test system: MALAT1 triple helix; experiment: Differential scanning fluorimetry (DSF), triplex thermal stability; type: binding, human
Method: Differential Scanning Fluorimetry. Differential scanning fluorimetry experiments were performed as previously reported. (Donlic A, et al. (2020) Nucleic Acids Res. 48(14):7653-7664). All experiments were performed in white 96 well plates in a LightCycler® 96 (Roche). In a typical experiment, 4 μM of RNA was annealed in the same buffer used for indicator displacement assays (20 mM HEPES-KOH, 52.6 mM KCl, 0.1 mM MgCl2, pH=7.4) by heating at 95° C. for 3 minutes, snap-cooling on ice for 10 minutes, and leaving the solution at room temperature for 1 hr. Then, 42 μL of this solution was aliquoted to wells and 5 μM of ligand was added (2.5 μL of water, 2.0 μL of DMSO, 0.5 μL of 500 μM small molecule stock). The mixture was left to incubate at room temperature for 5 minutes, after which 3 μL of a 20 µM Quant-iT™ RiboGreen™ (ThermoFisher Scientific) dye stock solution in appropriate buffer was added to each well. The 96 well plate was then sealed with an optically clear foil and centrifuged for 1 minute at 4000 rpm prior to being placed in the instrument. The light cycler program was created by selecting the melting curve method; fluorescence intensity was monitored using the SYBR Green I/HRM dye filter combination (465-510 nm) from 37-98° C. at a ramp rate of 0.01° C./second with 150 acquisitions per ° C. Melting profiles were obtained by Tm analysis in the LightCycler® 96 software (SW 1.1).

[4] = test system: MALAT1 triple helix; experiment: RiboGreen indicator displacement assay (IDA); type: binding, human
Method: Indicator Displacement Assay (DIA).
The protocol was adapted from a previously reported procedure. (Donlic A, et al. (2020) Nucleic Acids Res. 48(14):7653-7664). A serial dilution of the MALAT1 triple helix RNA was performed in HEPES buffer (20 mM HEPES-KOH, 52.6 mM KCl. 0.1 mM MgCl2, pH=7.4) in a 96 well plate in triplicate. […] of each dilution were transferred to a 384 well plate followed by […] of a 500 nM solution of RiboGreen dye in the same buffer (Invitrogen™). The plates were excited at 487 nm (8 nm slit) and emission was recorded at 530 nm (8 nm slit, focal height 11.3 mm) using a CLARIOstar plate reader (BMG labtech). The affinity of the dye for the RNA construct was determined by fitting the raw fluorescence in GraphPad Prism version 8.3.1 for Macintosh (GraphPad Software, La Jolla California USA, (www.graphpad.com)) by fitting to the Log[Agonist]vs. response-variable slope model that using Equation (1) below.
where Y is normalized % change in fluorescence intensity, X is RNA concentration, Bottom is lowest fluorescence % change and Top is highest fluorescence % change. Affinity of the dye for the RNA construct was used as the ideal RNA concentration (174 nM) for small molecule titrations.
A serial dilution of small molecule (0, 0.5 μM, […], 2.5 μM, […], 7.5 μM, 10.0 μM, 12.5 μM, 25 μM, 50 μM, 75 μM, 100 μM, 125 µM, 150 µM, 250 μM, 500 µM) was performed in HEPES buffer (20 mM HEPES-KOH, 52.6 mM KCl, 0.1 mM MgCl2, pH=7.4) in a 96 well plate in triplicate. Then, 8 μL of each dilution were transferred to a 384 well plate, followed by 8 μL of a 174 nM solution of MALAT1 RNA and 0.5 mM of RiboGreen™ (Invitrogen™). The RNA was previously annealed by heating to 95° C. for 5 minutes and cooling to 0° C. on ice for 30 minutes. The 384 well plates were shaken for 5 minutes, centrifuged at 4000 rpm for 1 minute, and incubated in the dark for 20 minutes. The plates were excited at 487 nm (8 nm slit) and emission was read at 525 nm (8 nm slit, focal height […]) using a CLARIOstar plate reader (BMG Labtech). Percent fluorescence indicator displacement (% FID) was calculated by subtracting and, subsequently, dividing by the blank wells with RNA-dye complex and no small molecule as shown in Equation (2).
Where F0 is the fluorescence of the blank well with RNA+dye and no small molecule and F is the fluorescence of the well with all three components (RNA+dye+small molecule).
Each technical triplicate was averaged, and the resulting FID values were averaged between three independent experiments. The binding curve and Log(CD50) value was obtained by using a non-linear fit curve (Log[Agonist]vs. response) with variable slope at four parameters (GraphPad Prism Software version for Macintosh 8.3.1, La Jolla, California, USA (www.graphpadprism.com)) as shown in Equation 1. Reported values are averages of three independent experiments standard deviation.

[5] = 48 hours, read-out: IC50 at 48 hours
[6] = 5-minute time point, relative to DMSO control

stabilizing or destabilizing compound as listed in the description [2]: destabilizing
SMILES: CN(C)c1ccc(CN2CCC(CCNC(=N)c3ccc(/N=N/N(C)c4ccc(C(=N)NCCC5CCN(Cc6ccc(N(C)C)cc6)CC5)cc4)cc3)CC2)cc1 [DMZ-NMe-P38]

affinity for the MALAT1 triple helix (IDA), in words [4]: no affinity
SMILES: N=C(NCc1ccccc1)c1ccccc1/N=N/Nc1ccccc1C(=N)NCc1ccccc1 [DMZ-O4]

stabilizing or destabilizing compound as listed in the description [2]: destabilizing
SMILES: CN(/N=N/c1ccc(C(=N)NCCC2CCN(Cc3ccccc3)CC2)nc1)c1ccc(C(=N)NCCC2CCN(CC3C=CC=CC3)CC2)nc1 (stereo not shown) [DMZ-NMe-mPy-P1]

increase of the amount of MALAT1 degraded at 5 minutes ([2]; 5-minute time point): 2 fold and > 2 fold | stabilizer or destabilizer of MALAT1 triplex (RNase A degradation) [2, 6]: destabilizers | affinity for the MALAT1 triple helix (IDA), in words [4]: mediocre affinity
SMILES: N=C(NCc1ccccc1)c1cccc(/N=N/Nc2cccc(C(=N)NCc3ccccc3)c2)c1 [DMZ-M4]
effect on MALAT1 triplex thermal stability (DSF), in words [3]: increases in thermal stability; also recorded: mediocre affinity and thermal stabilization | CD50 (50% competitive displacement dose) ([4]; 16-point titration, 20 mM HEPES-KOH, 52 mM KCl, 0.1 mM MgCl2, pH 7.4): 36.6 µM

stabilizer or destabilizer of MALAT1 triplex (RNase A degradation) [2, 6]: destabilizers
SMILES: CN(C)CCCNC(=N)c1ccc(/N=N/Nc2ccc(C(=N)NCCCN(C)C)cc2)cc1 [DMZ-P1]
effect on MALAT1 triplex thermal stability (DSF), in words [3]: increases in thermal stability | effect on Tm1 (ΔTm1) ([3]; equimolar ratio of RNA:small molecule, compared to DMSO vehicle): approximately 6.1 °C | graded stabilizer/destabilizer class (change in degradation) [2, 6]: weak destabilizer (weak destabilizer (<50% increase in degradation))

IC50 [1, 5]: 4100 nM | IC50 ([1]; 72 hours, read-out: IC50 at 72 hours): 2700 nM
SMILES: N=C(NCCC1CCN(Cc2ccccc2)CC1)c1ccc(/N=N/Nc2ccc(C(=N)NCCC3CCN(Cc4ccccc4)CC3)cc2)cc1 [DMZ-P13]

fold higher affinity with the para scaffold versus the ortho scaffold (DMZ-O5) ([4]; subunit R-5): 13 fold
SMILES: N=C(NCc1ccc(Cl)cc1)c1ccc(/N=N/Nc2ccc(C(=N)NCc3ccc(Cl)cc3)cc2)cc1 [DMZ-P5]

More lines, now with the values behind:

SMILES: N=C(NCc1ccc(-c2ccccc2)cc1)c1cccc(/N=N/Nc2cccc(C(=N)NCc3ccc(-c4ccccc4)cc3)c2)c1 [DMZ-M7]
IC50 [1, 5]: 2900 nM

SMILES: CN1CCN(CCNC(=N)c2cccc(/N=N/Nc3cccc(C(=N)NCCN4CCN(C)CC4)c3)c2)CC1 [DMZ-M10]
IC50 relative to other tested library members, in words [1]: higher IC50

SMILES: N=C(N)c1ccc(/N=N/Nc2ccc(C(=N)N)cc2)cc1 [DMZ-P0, diminazene, reference compound]
effect on MALAT1 triplex thermal stability (DSF), in words [3]: increases in thermal stability | stabilizer or destabilizer of MALAT1 triplex (RNase A degradation) [2, 6]: destabilizers | IC50 relative to other tested library members, in words [1]: much higher IC50

SMILES: N=C(NCc1ccccc1Cl)c1ccccc1/N=N/Nc1ccccc1C(=N)NCc1ccccc1Cl [DMZ-O6]
stabilizing or destabilizing compound as listed in the description [2]: destabilizing; also recorded: stabilizing

SMILES: N=C(NCc1ccco1)c1cccc(/N=N/Nc2cccc(C(=N)NCc3ccco3)c2)c1 [DMZ-M15]
effect on MALAT1 triplex thermal stability (DSF), in words [3]: negligible thermal stabilization | stabilizing or destabilizing compound as listed in the description [2]: stabilizing; also recorded: destabilizing | affinity for the MALAT1 triple helix (IDA), in words [4]: moderate affinity

SMILES: CCN(CCCCNC(=N)c1ccc(N/N=N/c2ccc(C(=N)NCCCN(CC)Cc3ccccc3)cc2)cc1)Cc1ccccc1 [DMZ-P14]
stabilizing or destabilizing compound as listed in the description [2]: stabilizing; also recorded: destabilizing

SMILES: N=C(NCc1ccc(Cl)cc1)c1ccccc1/N=N/Nc1ccccc1C(=N)NCc1ccc(Cl)cc1 [DMZ-O5]
stabilizer or destabilizer of MALAT1 triplex (RNase A degradation) [2, 6]: much stronger destabilizing effect than DMZ-P5

SMILES: N=C(NCCc1cccnc1)c1cccc(/N=N/Nc2cccc(C(=N)NCCc3cccnc3)c2)c1 [DMZ-M3]
effect on MALAT1 triplex thermal stability (DSF), in words [3]: negligible thermal stabilization | affinity for the MALAT1 triple helix (IDA), in words [4]: moderate affinity
